The test system of series [1] is apheresis platelet concentrates. Briefly: In vitro cell quality tests of stored platelets after riboflavin + UV light treatment (clinical study one). Format: cell-based, human. The procedure:
The platelet concentrate with a volume of 250 mL was transferred into a 3-litre polyolefin bag (Sengewald, Rohrdorf, Germany), followed by addition of 27 mL sterile 500 μM riboflavin so that the final concentration in the product was ca. 50 μM. The platelet products were then exposed to UV light (phosphor 265-370 nm) at either a medium dose level (7.2 J/ml) or high dose level (12.4 J/ml). Total illumination time varied from approximately 5-10 minutes with agitation at a temperature of 25-30° C. After treatment, platelet products were transferred into a citrated polyvinyl chloride ELP™ bag (Gambro BCT, Lakewood, Colo.). The treated and control PCs were stored for an additional 5 days at 20-24° C. under standard blood bank conditions. Control platelet products were prepared in the same manner as the treated counterparts except no riboflavin was added and no UV light treatment was performed.
Platelet samples were taken for lab tests at day 0, 3 and 5 of platelet storage using aseptic technique and analysis was completed within 2 hours. The in vitro cell quality tests for platelet count, swirl score, pH, pO2, pCO2, lactate and glucose were performed per standard operating procedures (SOPs) of the trial site. Hypotonic shock response (HSR) and P-selectin expression were measured as described by Ruane et al. (Ruane P H, Edrich R, Gampp D et al. Photochemical inactivation of selected viruses and bacteria in platelet concentrates using riboflavin and light. Transfusion 2004;44:877-85.)
Following Ethical Committee approval and notification of the MCC, the competent authority of South Africa, a total of 18 platelet products were collected with yields ranging from 2.9 to 3.8×10^11 platelets using standard Trima apheresis procedures. Products were treated in a polyolefin container, Sengewald bag, with UV light at either a medium UV dose (7.2 J/ml; N=5) or a high UV dose (12.4 J/ml; N=6) in the presence of 50 μM riboflavin on the day of collection. An additional seven products served as controls which were not treated with UV light. All treated and control PC products were transferred to and stored in ELP™ bags under normal blood bank conditions for 5 days post-apheresis collection. At day 0 (pre-treatment), day 3 and day 5 of storage, the samples from all PC products were measured for pH, pO2, pCO2, lactate and glucose concentrations, P-selectin, HSR and platelet swirl. […] UV treatment also accelerated an increase in P-selectin expression and decreases in HSR and swirl score during platelet storage. It appears that the severity of these changes during platelet storage were in direct proportion to the levels of UV dose applied.

The next series concerns platelets. The series can be described thus: In vivo radiolabeled platelet recovery after infusion into the autologous donor (clinical study one). The settings on record: after 5-day storage. Also noted: species or system human. The procedure: At the end of the 5-day storage period, a small aliquot of the platelets was radiolabeled with ^111Indium, according to the study site's SOP (in agreement with local and international standards for radiolabeling of human platelets). The labeling procedure was performed after formation of ^111In-tropolonate through mixing of ^111Indium chloride (Amersham) with tropolone. If the pH of the platelet samples to be labeled was>6.5, it was brought down to 6.5 to prevent irreversible aggregation of platelets during pelleting.
After washing and resuspension in plasma, a radiolabeled aliquot was infused into the autologous donor. The total radioactivity that was given to a subject in this study was less than 8 MBq. Blood samples for radioactivity counting were collected 15 minutes, 1 hour and 2-3 hours after infusion, twice (AM and PM) on day 1 post-infusion and once on days 2-6 post-infusion. After correcting for 2-hour radioelution as described by Holme, et al., (Holme S, Heaton A, Roodt J. Concurrent label method with 111In and 51Cr allows accurate evaluation of platelet viability of stored platelet concentrates. Br J Haematol 1993;84:717-23.) in vivo radiolabeled platelet recovery and survival values were calculated by the COST computer program using the multiple-hit model. […]

As to `Cc1cc2nc3c(=O)[nH]c(=O)nc-3n(C[C@H](O)[C@H](O)[C@H](O)CO)c2cc1C` [riboflavin, 7,8-dimethyl-10-ribityl isoalloxazine], the pO2 in series [1] (50 μM riboflavin + high UV dose (12.4 J/ml), Day 0 (pre-treatment)) is recorded as 95 +/− 19 mmHg; in series [1] (50 μM riboflavin + high UV dose (12.4 J/ml), Day 3), 83 +/− 22 mmHg; in series [1] (50 μM riboflavin + high UV dose (12.4 J/ml), Day 5), 88 +/− 30 mmHg; in series [1] (50 μM riboflavin + medium UV dose (7.2 J/ml), Day 0 (pre-treatment)) it was 60 +/− 15 mmHg; in series [1] (50 μM riboflavin + medium UV dose (7.2 J/ml), Day 3) it was 82 +/− 24 mmHg; in series [1] (50 μM riboflavin + medium UV dose (7.2 J/ml), Day 5), 68 +/− 17 mmHg. Also, the “average in vivo recovery of infused platelets” value amounted to 14% in the series with platelets (50 μM riboflavin + high dose of UV light (12.4 J/ml)) and 30% with platelets (50 μM riboflavin + medium dose of UV light (7.2 J/ml)).
